SMILES | melting point
Cc1ccc(Cn2nc(CCl)cc2-c2ccc(Cl)c(Cl)c2)cc1Cl | 88 °C
COc1cc2c(c(OC)c1OC)C(=O)C(CCCCCCC1Cc3cc(OC)c(OC)c(OC)c3C1=O)C2 (configuration not stated) | 129 to 130 °C
CCCCc1nc2cccc(CO)c2n1Cc1ccc(-c2ccccc2C#N)cc1 | 203 to 204 °C
Cc1cccc(N2CC(=O)N(c3ccc(S(N)(=O)=O)cc3Cl)C2)c1 | 198 to 202 °C
CCOC(=O)C(C(=O)C(C)C)C(CC(=O)C(C)(C)C)c1ccc(F)cc1 (configuration not stated) | 80 to 89 °C
COc1ccc(CCCN(CCCc2ccc(OC)c(OC)c2)C(=O)N(C)O)cc1OC | 93 to 94 °C
O=c1c2ccc(Cl)cc2[nH]n1Cc1ccccc1 | 209 to 214 °C
Cc1c(C=O)c2ccccc2n1C | 129 °C
CC1(C)Cc2c(c(N3CCOCC3)nc3sc4c(NCc5cnc6ccccc6c5)ncnc4c23)CO1 | 272 to 273 °C
NS(=O)(=O)c1ccc(-n2nc(C(F)(F)F)cc2-c2ccc(-c3cnco3)cc2)cc1 | 128 to 130 °C
CCCN1CC(NC(=O)C(C)(C)C)CC2c3cccc4[nH]c(Br)c(c34)CC21 (configuration not stated) | 182 to 183 °C
Cc1ccc2c(-c3ccoc3)cc(=O)oc2c1 | 160 to 162 °C
COC(=O)[C@@]12CO[C@@H](C(C)(C)C)N1C(=O)[C@@H](Cc1ccccc1)C2 | 130 to 131 °C
CC1=C(C)C(=O)N(c2ccc(Cl)c(C=C(Cl)C#N)c2)C1=O | 139 to 140 °C
Cc1cc(O)c(C2CCCCC2)cc1S(=O)c1cc(C2CCCCC2)c(O)cc1C | 151 to 153 °C
Cc1nn(-c2ccccc2)c(O)c1-c1c(C)nn(-c2ccccc2)c1O | > 280 °C
Cc1ccc(S(=O)(=O)Nc2cccc(-c3nnc(-c4ccc(C(=O)O)cc4)o3)c2)cc1 | > 275 °C
CCCCCCNCc1ccc(COc2cccc3c2CN(C2CCC(=O)NC2=O)C3=O)cc1 (configuration not stated) | 155 to 157 °C
CN1C(=O)N(c2ccc([N+](=O)[O-])c(C(F)(F)F)c2)C(=O)C1(C)CF (configuration not stated) | 118 to 119 °C
CCOC(=O)C1=CNc2cccnc2S1 | 194 to 195 °C
COc1cc(Nc2nc3ccnc(-c4ccc(S(N)(=O)=O)cc4)c3o2)cc(OC)c1OC | > 280 °C
CC(O)c1ccc(-c2ccc(S(C)(=O)=O)cc2)o1 (configuration not stated) | 118 to 120 °C
CN(C)Cc1cccc(OCCCNc2nc(-c3ccccc3)n[nH]2)c1 | 126 to 128 °C
Cc1ccc(CNc2nc(Cl)nc(OCC(F)(F)F)n2)o1 | 70 to 72 °C
O=C(CNC(=O)c1ccncc1)NC1CCN(CCc2c[nH]c3ccccc23)CC1 | 211 to 215 °C

SMILES | melting point
CNc1ncc2c(n1)N(c1ccccc1)C(=O)N(c1c(Cl)cccc1Cl)C2 | 211 to 213 °C
CN(C)CC(=O)N1c2ccccc2N(C)S(=O)(=O)c2ccc(Cl)cc21 | 138 to 139 °C
CC(=O)ON=C(N)c1ccc(C(=O)N2CCN(C(=O)[C@@H]3CCCN3S(=O)(=O)c3ccc(Cl)c(COc4cccc5ncc(C)nc45)c3Cl)CC2)cc1 | 161 to 165 °C
CCOc1nn(Cc2ccc(OCc3cn4c(Cl)cccc4n3)cc2)cc1CCC(=O)O | 153 to 154 °C
CN(C)Cc1nc(-c2ncn3c2[C@@H]2CCN2C(=O)c2c-3ccc(F)c2Cl)no1 | 166 to 169 °C
CCN1CC(CCN2CCOCC2)N(C)c2ccccc2C1=O (configuration not stated) | 128 to 148 °C
CCOC(=O)C(OCc1ccccc1)C(=O)c1cc(Cl)ccc1OCc1ccccc1 (configuration not stated) | 64 to 65 °C
CC(=O)c1cn(-c2c(Cl)cc(C(F)(F)F)cc2Cl)nc1C#N | 166 to 168 °C
CCc1nn(-c2ccc3cc(-c4ccc([N+](=O)[O-])cc4)c(=O)oc3c2)nc1C | 278 to 279 °C
COC(=O)c1cccc(Sc2ccc([N+](=O)[O-])cc2)c1 | 98 to 100 °C
CC(=Cc1ncon1)c1ccc(Cl)cc1 | 56 to 57 °C
COC[C@@H](NC(=O)c1nn(-c2ccc(F)cc2F)c2c1C1CCC2C1)c1ccc(F)cc1 (some centres not stated) | 109 to 111 °C
O=C(O)CCc1oc(Cl)nc1-c1ccc(Cl)cc1 | 169 to 170 °C
CC1(C)CC(=O)C(C)(C)c2cc(/C=C/c3ccc(C(=O)O)cc3)c(Cn3cccn3)cc21 | 265 to 266 °C
OC(c1nnn[nH]1)c1ccccc1Cl (racemic) | 130 to 132 °C
Nc1nc(N2CCC2)c2ncn(C3CC(F)C(CO)O3)c2n1 (configuration not stated) | 127 to 129 °C
CC(O)c1cnc(C(F)(F)F)nc1 (configuration not stated) | 43 to 45 °C
Cc1cc(C)nc(Sc2ccnc3cc(Cl)ccc23)n1 | 127 to 130 °C
O=C(NCc1cccnc1)C1Oc2ccc(Cl)cc2Cc2cc(Cl)ccc2O1 | 225 to 226 °C
Cc1cc(C)c2c(n1)[nH]c(=O)c1ccccc12 | 276 to 278 °C
N#Cc1ccc2[nH]c(O)c(-c3ccc(CN4CCOCC4)cn3)c2c1 | 228 to 230 °C
CCOC(=O)C(=O)c1cc(F)cc2cccnc12 | 114 to 117 °C
CCCC=Cc1c(C(C)C)nc(C(C)C)c(CO)c1-c1cccc(F)c1 | 117 to 118 °C
CCCc1nc2c(N)nc3cc(-c4cccc(C(=O)N(CC)CC)c4)ccc3c2s1 | 169 to 172 °C
CC(C)Cn1c(C(C)O)nc2cnc3ccccc3c21 (configuration not stated) | 152 to 166 °C

SMILES | melting point
COc1ccc(CN2CCC(C(O)(c3ccc(OC(F)(F)F)cc3)c3ccc(OC(F)(F)F)cc3)CC2)cc1 | 86 to 96 °C
Cc1c2cc(C(=O)O)[nH]c2cc2c1sc1ccccc12 | 271 to 272 °C
Cn1cnc(COc2nn3c(-c4cc(CO)on4)nnc3c3ccccc23)n1 | 275 to 276 °C
Nc1nccc(-c2c[nH]c3nccc(CCc4ccccc4)c23)n1 | 196 to 198 °C
Cc1nn2cccnc2c1C#N | 179 to 181 °C
O=C(O)c1ccc(COc2ccc3cc(-c4ccc(-c5ccccc5)n4Cc4ccc(C(F)(F)F)cc4)ccc3c2)c(C(=O)O)c1 | 250 to 252 °C
CCC1(c2cccs2)NC(=O)NC1=O (configuration not stated) | 173 to 174 °C
COc1ccc(-c2cc3cc(OC)cc(C=C(Cl)Cl)c3o2)cc1 | 129 to 131 °C
CCOC(=O)C1[C@@H]2[C@@H](O)[C@@H]3O[C@H](c4ccc(C(F)(F)F)cc4)OC[C@H]3O[C@H]12 (some centres not stated) | 128 to 131 °C
Cc1cc(C#N)c(Cl)nc1C | 83 to 87 °C
COc1cc2[nH]c(=O)n(S(=O)(=O)c3ccc(Cl)cc3)c(=O)c2cc1OC | > 250 °C
CCCc1c(OCCCOc2cc(NC(=O)C(=O)O)c(C)cc2Cl)ccc(C(C)=O)c1O | 188 to 189 °C
CCCCCc1cc2c(cc1/C=C/C=C/C(C)=C/C(=O)O)C(C)(C)CCC2(C)C | 164 to 166 °C
N[C@@H](CSCCC1CCN(C(=O)OCc2ccccc2)CC1)C(=O)O | 185 to 188 °C
COc1cc(OC)c2c(=O)cc(Oc3ccccc3)oc2c1C1CCN(C)CC1O (configuration not stated) | 238 to 239 °C
COc1ccc(OCC(O)CN2CCC(Nc3nc4c(C)cccc4n3Cc3nc(C)ccc3O)CC2)cc1 (configuration not stated) | 227 °C
COCCOC(=O)c1ccc(O)cc1 | 90 to 93 °C
O=C(CBr)c1cccc2nnsc12 | 155 to 157 °C
O=C(c1cccc(Oc2ccccc2)c1)c1cccc(Br)n1 | 65 to 66 °C
CCCC(=O)Nc1n[nH]c2c(N)cc(C)nc12 | 170 to 171 °C
O=C(O)CCCC(=O)c1ccc(O)c(CCC(=O)O)n1 | 134 to 136 °C
Cc1ncn(-c2nc(Cl)c(-c3ccccc3)c3ccccc23)c1C | 164 to 165 °C
CC(C)c1cccc(C(C)C)c1NC(=O)CC1=C(c2ccccc2)c2cc(Cl)ccc2N(C)C1 | 192 to 194 °C
C#CCOc1c(OC)cc(/C=C/C(=O)/C=C/c2cc(OC)c(OCC#C)c(OC)c2)cc1OC | 162 to 164 °C
Cc1cc(-c2cc(C(F)(F)F)n3cnc(-c4cccnc4)c3n2)ccc1C(F)(F)F | 173 °C

SMILES | melting point
COc1cc(-n2cccn2)ncn1 | 108 to 109 °C
CC(=O)Nc1cccc(-n2nc(C#N)c(=O)n(Cc3ccc(Cl)cc3)c2=O)c1 | 196 °C
Cc1c(CC(=O)NOCc2ccccc2)c2cc(OCc3nc4ccccc4s3)ccc2n1Cc1ccc(Cl)cc1 | 183 to 186 °C
C#CCN1CCN(C2=Nc3cc(Cl)ccc3Nc3ccccc32)CC1 | 138 to 140 °C
COC(=O)c1cccc(CN2C(=O)C3(COc4cc5c(cc43)CCO5)c3ccccc32)c1 (configuration not stated) | 97 to 98 °C
CCCC=Cc1c(C(C)C)nc(C(C)C)c(CO)c1-c1ccc(S(C)=O)cc1 (configuration not stated) | 133 to 135 °C
Nc1nc(Cl)c(C(F)(F)F)cc1Cl | 110 to 112 °C
CS(=O)(=O)c1cccc(NC(=O)c2cnn3c(C(F)(F)F)cc(-c4ccc(Cl)c(Cl)c4)nc23)c1 | 263 °C
CN(C)S(=O)(=O)c1cc(-c2csc(=Nc3ccc4c(c3)OCO4)n2C)ccc1Cl | 171 to 173 °C
O=c1oc2cc(O)c(O)c([N+](=O)[O-])c2c2c1CCCC2 | 238 to 255 °C
CCc1cc(C2(c3cccc(-c4cccnc4F)c3)N=C(N)N3CCCN=C32)cc(CC)n1 (configuration not stated) | 174 to 176 °C
CCCNC(=O)N(C)C1CCN(c2ncnc3cc(OC)c(OC)cc23)CC1 | 209 to 211 °C
Fc1ccccc1NC(=S)Nc1ncccc1OCc1c(F)cccc1Cl | 145 to 147 °C
NCCNC(=O)CC(CO)c1c(Cl)cccc1Cl (configuration not stated) | 127 to 129 °C
CN(C)C(=O)Nc1ccc(OCCc2ccccc2)c(N)c1 | 125 to 126 °C
CCc1nc2c(N)nc3cc(-c4cncc(CO)c4)ccc3c2n1CC(C)(C)O | > 250 °C
CC(C)(CNc1ccnc2cc(Cl)ccc12)NCc1cccc(Cl)c1 | 125 to 126 °C
CN1C(=O)CNC2=C1C=NC(Cl)=CN2c1ccccc1 | 105 to 107 °C
COc1ccc(CCC(N[C@@H](C)C(=O)N(CC(=O)O)C2Cc3ccccc3C2)C(=O)O)cc1OC (some centres not stated) | 160 to 165 °C
COc1ccc(C2=NN(c3ccc(-c4nnn(Cc5ccccc5)n4)cc3)C(=O)[C@H]3CC=CC[C@@H]23)cc1OC (relative stereo) | 100 to 102 °C
O=C(Nc1ccc(-n2nc(C3CC3)cc2C2CC2)nc1)c1ccncc1F | 192 to 195 °C
COc1ccc(-c2cc(N3CCN(c4ccccc4)CC3)nc(C)c2-c2ccc(OC)cc2)cc1 | 173 to 174 °C

Reference: a melting point compilation (Tetko et al.; mined from patent text by program, amines drawn as free bases though some values may be those of a salt)
